PubChem BioAssay AID256 (DTP/NCI, 2004)
Inconclusive results and toxic doses are left out. Rule for the calls: active = survival T/C of 150% or more; inactive = T/C below 125% in these data.

Tested on: CD2F1 mice, L1210 leukemia ip, survival T/C
Test: NCI In Vivo Anticancer Drug Screen. Data for tumor model L1210 Leukemia (intraperitoneal) in CD2F1 (CDF1) mice
Settings: higher = longer survival
How it was run: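 Ratio T/C, where T is the treated-group value and C the vehicle-dosed control value, from mice implanted with a transplantable tumor.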

[1] = endpoint: mean survival time, dose: 100.0 mg/kg/injection, schedule: Q04DX003 (ip), vehicle: saline with Tween-80
[2] = endpoint: mean survival time, dose: 200.0 mg/kg/injection, schedule: Q04DX003 (ip), vehicle: saline with Tween-80
[3] = endpoint: mean survival time, dose: 400.0 mg/kg/injection, schedule: Q04DX003 (ip), vehicle: saline with Tween-80
[4] = endpoint: mean survival time, dose: 100.0 mg/kg/injection, schedule: Q04DX002 (ip), vehicle: saline with Tween-80
[5] = endpoint: mean survival time, dose: 200.0 mg/kg/injection, schedule: Q04DX002 (ip), vehicle: saline with Tween-80
[6] = endpoint: mean survival time, dose: 400.0 mg/kg/injection, schedule: Q04DX002 (ip), vehicle: saline with Tween-80
[7] = endpoint: mean survival time, dose: 6.25 mg/kg/injection, schedule: Q01DX009 (ip), vehicle: saline
[8] = endpoint: mean survival time, dose: 12.5 mg/kg/injection, schedule: Q01DX009 (ip), vehicle: saline

Measured: T/C

O=C(O)c1ccccc1S(=O)(=O)c1ccccc1
inactive: [1] 93 % of control | [2] 88 % of control | [3] 95 % of control

[Br][OsH].[C-]#[O+].c1ccc([PH+](c2ccccc2)c2ccccc2)cc1.c1ccc([PH+](c2ccccc2)c2ccccc2)cc1.c1ccc([PH+](c2ccccc2)c2ccccc2)cc1
inactive: [4] 91 % of control | [5] 87 % of control | [6] 87 % of control

CC(C)(C)Nc1ccc([N+](=O)[O-])cc1Cl
inactive: endpoint: mean survival time, dose: 12.5 mg/kg/injection, schedule: Q01DX001 (ip), vehicle: DMSO 89 % of control | endpoint: mean survival time, dose: 25.0 mg/kg/injection, schedule: Q01DX001 (ip), vehicle: DMSO 100 % of control | endpoint: mean survival time, dose: 25.0 mg/kg/injection, schedule: Q04DX003 (ip), vehicle: Klucel (hydroxypropylcellulose) (HPC) 93 % of control | endpoint: mean survival time, dose: 50.0 mg/kg/injection, schedule: Q01DX001 (ip), vehicle: DMSO 103 % of control | endpoint: mean survival time, dose: 50.0 mg/kg/injection, schedule: Q04DX003 (ip), vehicle: Klucel (hydroxypropylcellulose) (HPC) 94 % of control | endpoint: mean survival time, dose: 100.0 mg/kg/injection, schedule: Q04DX003 (ip), vehicle: Klucel (hydroxypropylcellulose) (HPC) 91 % of control

CC(C)(O)/C=C/C(=O)[C@](C)(O)[C@H]1[C@H](O)C[C@@]2(C)[C@@H]3CC=C4[C@@H](C=C(O)C(=O)C4(C)C)[C@]3(C)C(=O)C[C@]12C
inactive: endpoint: median survival time, dose: 0.5 mg/kg/injection, schedule: Q01DX005 (ip), vehicle: water 113 % of control | endpoint: median survival time, dose: 1.0 mg/kg/injection, schedule: Q01DX005 (ip), vehicle: water 110 % of control

O=C(Sc1cccc2ccccc12)c1ccc([N+](=O)[O-])cc1
inactive: endpoint: mean survival time, dose: 100.0 mg/kg/injection, schedule: Q01DX001 (ip), vehicle: saline with Tween-80 105 % of control | endpoint: mean survival time, dose: 200.0 mg/kg/injection, schedule: Q01DX001 (ip), vehicle: saline with Tween-80 92 % of control | endpoint: mean survival time, dose: 400.0 mg/kg/injection, schedule: Q01DX001 (ip), vehicle: saline with Tween-80 101 % of control

CCOC(=O)C1=C(N)SC(=O)C1
inactive: [1] 100 % of control | [2] 104 % of control | [3] 95 % of control

CC(=O)Oc1cc2c3c(c1)CCCN3CCC2
inactive: endpoint: mean survival time, dose: 5.0 mg/kg/injection, schedule: Q04DX003 (ip), vehicle: saline 102 % of control | endpoint: mean survival time, dose: 6.25 mg/kg/injection, schedule: Q01DX009 (ip), vehicle: saline with Tween-80 101 % of control | endpoint: mean survival time, dose: 12.5 mg/kg/injection, schedule: Q01DX009 (ip), vehicle: saline with Tween-80 96 % of control

C=Cc1ccc(C(N)=O)cc1
inactive: [1] 101 % of control | [2] 98 % of control | [3] 96 % of control

O=C(C1CC1)N1CCC(O)(c2ccccc2)CC1
inactive: [4] 97 % of control | [5] 93 % of control | [6] 93 % of control

C[CH2][Sn]([CH2]C)([O]S(=O)(=O)CC12CCC(CC1=O)C2(C)C)[O]S(=O)(=O)CC12CCC(CC1=O)C2(C)C
inactive: endpoint: mean survival time, dose: 1.56 mg/kg/injection, schedule: Q01DX009 (ip), vehicle: saline 94 % of control | endpoint: mean survival time, dose: 3.12 mg/kg/injection, schedule: Q01DX009 (ip), vehicle: saline 94 % of control | [7] 103 % of control | [8] 113 % of control | endpoint: mean survival time, dose: 25.0 mg/kg/injection, schedule: Q01DX009 (ip), vehicle: saline 111 % of control

OC1C2CCC(C2)C1C(O)(C(F)(F)F)C(F)(F)F (centres undefined)
inactive: endpoint: mean survival time, dose: 3.13 mg/kg/injection, schedule: Q01DX009 (ip), vehicle: saline 104 % of control | [7] 98 % of control | endpoint: mean survival time, dose: 6.25 mg/kg/injection, schedule: Q04DX003 (ip), vehicle: saline with Tween-80 98 % of control | [8] 103 % of control | endpoint: mean survival time, dose: 12.5 mg/kg/injection, schedule: Q04DX003 (ip), vehicle: saline with Tween-80 98 % of control

COC(=O)C1C2C(=O)NC(=O)C2C(c2ccc(-c3ccccc3)cc2)N1C1CCCCC1 (centres undefined)
inactive: [1] 105 % of control | [2] 100 % of control | [3] 103 % of control

CCCN(CCC)S(=O)(=O)c1ccc(NC(=O)OC2CCCC2)cc1
inactive: endpoint: mean survival time, dose: 100.0 mg/kg/injection, schedule: Q01DX001 (ip), vehicle: saline 104 % of control | endpoint: mean survival time, dose: 200.0 mg/kg/injection, schedule: Q01DX001 (ip), vehicle: saline 106 % of control | endpoint: mean survival time, dose: 400.0 mg/kg/injection, schedule: Q01DX001 (ip), vehicle: saline 105 % of control

CC1NC(=O)OC1(C)c1ccccc1 (centres undefined)
inactive: [4] 103 % of control | [5] 98 % of control

O=c1[nH]c(=S)c(SCc2ccccc2)nn1C1OC(COP(=O)(O)O)C(O)C1O (centres undefined)
inactive: endpoint: median survival time, dose: 5.63 mg/kg/injection, schedule: Q01DX005 (ip), vehicle: water 98 % of control | endpoint: median survival time, dose: 11.25 mg/kg/injection, schedule: Q01DX005 (ip), vehicle: water 98 % of control | endpoint: median survival time, dose: 22.5 mg/kg/injection, schedule: Q01DX005 (ip), vehicle: water 102 % of control | endpoint: median survival time, dose: 45.0 mg/kg/injection, schedule: Q01DX005 (ip), vehicle: water 105 % of control | endpoint: median survival time, dose: 90.0 mg/kg/injection, schedule: Q01DX005 (ip), vehicle: water 103 % of control

CCC[N+](CCC)(CCC)CCC.N#CC(C#N)=C([SH2+])[SH2+].N#CC(C#N)=C([SH2+])[SH2+].N#CC(C#N)=C([SH2+])[SH2+].[Fe+3]
inactive: endpoint: mean survival time, dose: 25.0 mg/kg/injection, schedule: Q04DX003 (ip), vehicle: acetone 103 % of control | endpoint: mean survival time, dose: 50.0 mg/kg/injection, schedule: Q04DX003 (ip), vehicle: acetone 97 % of control
